# Results published in patent US9364448B2, “Nitisinone for treatment of oculocutaneous/ocular albinism and for increasing pigmentation” (The United States of America, as represented by the …, priority 2010, dated 2016).
# “Also recorded” adds a separate entry of the source.
# Assays:
# Type in all cases: in vivo, mouse
# [1] = system: C57BL/6J-Tyr^c-2J/c-2J mice (OCA1a model); assay: Transmission electron microscopy of iris, RPE and choroid, Tyr^c-2J/c-2J mice; settings: treated vs untreated
# Experimental: (§1) Transmission Electron Microscopy. Eyes from drug and vehicle-treated mice were dissected and divided into anterior and posterior segments (n=2 eyes from 2 separate mice in each group). The iris and posterior part (choroid, RPE and retina) of the eyes were removed and fixed in 2% glutaraldehyde and 2% paraformaldehyde in 0.1 M sodium phosphate buffer (PB), pH 7.4 for about 12 hours at room temperature (RT). After a wash with rinsing buffer (RB, 4% sucrose and 0.15 mM CaCl2 in PB), pH 7.4 at 4° C., tissues were postfixed in 1% OsO4 in 0.1 M PB, pH 7.4 for 1 hour. After rinsing and dehydration, tissues were embedded in Durcupan resin for 72 hours at 60° C. One micron semi-sections were used for tissue orientation. About 70-90 nm ultrasections were also collected in 200 mesh grids and counterstained with 5% uranyl acetate and 0.3% lead citrate. […]
# (§2) In order to quantitate the effect of NTBC on pigmentation in ocular tissues and to assess for sub-clinical changes in ocular pigmentation, transmission electron microscopy (TEM) of iris, retinal pigment epithelium (RPE), and choroid of treated and control mice (n=4 eyes from 2 mice for each group) was performed. […]
# [2] = system: C57BL/6J-Tyr^c-2J/c-2J mice (OCA1a model); assay: Plasma tyrosine in NTBC-treated Tyr^c-2J/c-2J mice
# Experimental: Drug Dosing and Monitoring. […] Plasma tyrosine was assayed from retro-orbital blood taken from mice at 1 week, and 4 weeks into treatment. Because the volume of blood that could be obtained from non-terminal bleeds was small, the plasma from 2-3 mice was pooled to make a single measurement. Plasma samples were frozen immediately after collection on dry ice. Samples ready for assay were gently thawed, diluted with an equal volume of loading buffer (0.2 M lithium citrate, pH 2.2), and filtered using Vivaspin 500 (3000 Da molecular weight cut-off, Sartorius Stedman Biotech, Goettingen, Germany) spun in a fixed angle centrifuge at about 14000×g for 60 minutes at a temperature of about 16-20° C. The supernatant was collected and tyrosine was quantitated on a Biochrom 30 […] (Biochrom, Ltd., Cambridge, UK) using the manufacturer's specifications. At the beginning of the study, baseline plasma concentrations of tyrosine, coat color (gross and microscopic), anterior segment pigment, and posterior segment pigment were documented for each mouse prior to initiating experiments. […] It is known that a possible side effect of NTBC treatment is corneal irritation, which is monitored daily. […] At the end of four weeks time, plasma tyrosine concentrations were assessed in both treated and control animals.
# [3] = system: C57BL/6J-Tyr^c-h/c-h mice (OCA1b model); assay: Transmission electron microscopy of iris, RPE and choroid, Tyr^c-h/c-h mice; settings: treated vs controls, statistically significant in all three tissues, FIG. 4
# Experimental: as §1, §2
# [4] = system: C57BL/6J-Tyr^c-2J/c-2J mice (OCA1a model); assay: Coat and ocular pigmentation, clinical examination, Tyr^c-2J/c-2J mice; settings: one month
# Experimental: Animal Husbandry and Clinical Examination. C57BL/6J mice (Stock #000664), C57BL/6JTyr^c-2J/c-2J mice (Stock #000058, MGI ID#1855985), and C57BL/6Tyr^c-h/c-h (Stock #000104, MGI ID#1855979) were obtained from the Jackson Laboratory (Bar Harbor, Me.). Mice were housed according to the institutional Animal Review Board standards with a 14 hour light/10 hour dark cycle. These studies conformed to the principles for laboratory animal research outlined by the Animal Welfare Act (NIH/HHS) and the ARVO Statement for the Use of Animals in Ophthalmic and Vision Research and were approved by the Institutional Animal Care and Use Committee of the National Eye Institute. Clinical examination and imaging of the anterior segment of mice were performed on gently-restrained, awake mice using a Haag-Streit BQ slit lamp and Imaging Module IM900® software (Haag-Streit, Inc., Mason, Ohio). […]
# At the beginning of the study, baseline plasma concentrations of tyrosine, coat color (gross and microscopic), anterior segment pigment, and posterior segment pigment were documented for each mouse prior to initiating experiments. […] It is known that a possible side effect of NTBC treatment is corneal irritation, which is monitored daily. […] At the end of four weeks time, plasma tyrosine concentrations were assessed in both treated and control animals. […]
smiles,measurement,setting,value
"O=C1CCCC(=O)C1C(=O)c1ccc(C(F)(F)F)cc1[N+](=O)[O-] [NTBC, 2-(-2-nitro-4 trifluoromethylbenzoyl)-1,3 cyclohexanedione]","Number of pigmented melanosomes (stages III and IV) in iris, choroid and RPE (TEM)",[1],little to no increase
same,Plasma tyrosine concentration,"[2]; Tyr^c-2J/c-2J (OCA1a model), 4 mg/kg q.o.d. oral, after 30 days, n = 4","673 ± 73 μM (n = 4,"
same,"Plasma tyrosine concentrations, treated vs control","[2]; Tyr^c-2J/c-2J mice, 1 mg/kg every other day by oral gavage, one month",not statistically significantly different
same,"Number of pigmented melanosomes in iris, choroid and RPE (TEM)",[3],clear increase
same,Phenotypic changes,[4]; 1 mg/kg every other day by oral gavage,no phenotypic changes
same,"Coat color, fundus pigmentation, iris transillumination (coat and ocular pigmentation)","[4]; 4 mg/kg orally every other day, 4 mg/kg",no difference; also recorded: grossly unchanged
